{
  "source": "ChEMBL document CHEMBL3994669",
  "about": "“Curcumin May (Not) Defy Science” (2017)",
  "assay_type_in_all_cases": "functional",
  "key": {"Homo sapiens [1]": {"tested_on": "Homo sapiens", "assay": "Anti-inflammatory activity in COPD patient assessed as change in creatinine level at 90 mg, po bid for 24 weeks (1.4%)"}, "Homo sapiens [2]": {"tested_on": "Homo sapiens", "assay": "Anti-inflammatory activity in COPD patient assessed as change in uric acid level at 90 mg, po bid for 24 weeks (2.3%)"}, "Homo sapiens [3]": {"tested_on": "Homo sapiens", "assay": "Anti-inflammatory activity in COPD patient assessed as change in SBP at 90 mg, po bid for 24 weeks (reference value: 1.4%)"}, "Homo sapiens [4]": {"tested_on": "Homo sapiens", "assay": "Anti-inflammatory activity in COPD patient assessed as change in triglyceride level at 90 mg, po bid for 24 weeks (14.5%)"}, "Homo sapiens [5]": {"tested_on": "Homo sapiens", "assay": "Anti-inflammatory activity in COPD patient assessed as change in C-reactive protein level at 90 mg, po bid for 24 weeks (11.1%)"}, "Homo sapiens [6]": {"tested_on": "Homo sapiens", "assay": "Antirheumatoid arthritic activity in patient assessed as visual analogue scale at 500 mg, po bid for 8 weeks in presence of diclofenac sodium (reference value: 77.25 +/- 9.65)"}, "Homo sapiens [7]": {"tested_on": "Homo sapiens", "assay": "Anti-inflammatory activity in COPD patient assessed as change in AT-LDL level at 90 mg, po bid for 24 weeks (14.8%)"}, "Homo sapiens [8]": {"tested_on": "Homo sapiens", "assay": "Anti-inflammatory activity in COPD patient assessed as change in HbA1c level at 90 mg, po bid for 24 weeks relative to placebo treated control"}, "Homo sapiens [9]": {"tested_on": "Homo sapiens", "assay": "Antirheumatoid arthritic activity in patient assessed as disease activity score at 500 mg, po bid for 8 weeks (reference value: 6.4 +/- 0.73)"}, "Homo sapiens [10]": {"tested_on": "Homo sapiens", "assay": "Anti-inflammatory activity in COPD patient assessed as change in LDL-C level at 90 mg, po bid for 24 weeks (11.4%)"}, "Homo sapiens [11]": {"tested_on": "Homo sapiens", "assay": "Antirheumatoid arthritic activity in patient assessed as disease activity score at 500 mg, po bid for 8 weeks in presence of diclofenac sodium (reference value: 6.44 +/- 0.51)"}, "Homo sapiens [12]": {"tested_on": "Homo sapiens", "assay": "Anti-inflammatory activity in COPD patient assessed as change in BMI at 90 mg, po bid for 24 weeks (reference value: -0.7%)"}, "Homo sapiens [13]": {"tested_on": "Homo sapiens", "assay": "Anti-inflammatory activity in COPD patient assessed as change in gammaGTP level at 90 mg, po bid for 24 weeks (-1.2%)"}, "Homo sapiens [14]": {"tested_on": "Homo sapiens", "assay": "Antirheumatoid arthritic activity in patient assessed as visual analogue scale at 500 mg, po bid for 8 weeks (reference value: 68.57 +/- 17.14)"}, "Homo sapiens [15]": {"tested_on": "Homo sapiens", "assay": "Anti-inflammatory activity in COPD patient assessed as change in DBP at 90 mg, po bid for 24 weeks (reference value: 2.9%)"}, "Homo sapiens [16]": {"tested_on": "Homo sapiens", "assay": "Anti-inflammatory activity in COPD patient assessed as change in forced expiratory volume in 1 second at 90 mg, po bid for 24 weeks (-3.6%)"}, "Homo sapiens [17]": {"tested_on": "Homo sapiens", "assay": "Anti-inflammatory activity in COPD patient assessed as change in HDL-C level at 90 mg, po bid for 24 weeks (2%)"}, "Homo sapiens [18]": {"tested_on": "Homo sapiens", "assay": "Anti-inflammatory activity in COPD patient assessed as change in blood sugar level at 90 mg, po bid for 24 weeks (14.5%)"}, "Homo sapiens [19]": {"tested_on": "Homo sapiens", "assay": "Anti-inflammatory activity in COPD patient assessed as change in SAA-LDL level at 90 mg, po bid for 24 weeks (10.8%)"}, "Homo sapiens [20]": {"tested_on": "Homo sapiens", "assay": "Antirheumatoid arthritic activity in patient assessed as disease activity score at 50 mg, po bid for 8 weeks (reference value: 6.72 +/- 0.87)"}, "Homo sapiens [21]": {"tested_on": "Homo sapiens", "assay": "Antirheumatoid arthritic activity in patient assessed as visual analogue scale at 50 mg, po bid for 8 weeks (reference value: 78.25 +/- 11.25)"}},
  "data": [
    {"compound": "COc1cc(/C=C/C(=O)CC(=O)/C=C/c2ccc(O)c(OC)c2)ccc1O", "note": "[CURCUMIN]", "values": [
      {"measurement": "Activity", "setting": "Homo sapiens [1]", "value": 2.9, "unit": "%"},
      {"measurement": "Activity", "setting": "Homo sapiens [2]", "value": 2.4, "unit": "%"},
      {"measurement": "Activity", "setting": "Homo sapiens [3]", "value": -1.3, "unit": "%"},
      {"measurement": "Activity", "setting": "Homo sapiens [4]", "value": 9.2, "unit": "%"},
      {"measurement": "Activity", "setting": "Homo sapiens [5]", "value": -12.5, "unit": "%"},
      {"measurement": "Activity", "setting": "Homo sapiens [6]", "value": 34.29},
      {"measurement": "Activity", "setting": "Homo sapiens [7]", "value": -1.6, "unit": "%"},
      {"measurement": "Activity", "setting": "Homo sapiens [8]", "value": 0.4, "unit": "%"},
      {"measurement": "Activity", "setting": "Homo sapiens [9]", "value": 3.55},
      {"measurement": "Activity", "setting": "Homo sapiens [10]", "value": 4.6, "unit": "%"},
      {"measurement": "Activity", "setting": "Homo sapiens [11]", "value": 3.58},
      {"measurement": "Activity", "setting": "Homo sapiens [12]", "value": 0.9, "unit": "%"},
      {"measurement": "Activity", "setting": "Homo sapiens [13]", "value": -5.7, "unit": "%"},
      {"measurement": "Activity", "setting": "Homo sapiens [14]", "value": 27.5},
      {"measurement": "Activity", "setting": "Homo sapiens [15]", "value": 3.5, "unit": "%"},
      {"measurement": "Activity", "setting": "Homo sapiens [16]", "value": -1.9, "unit": "%"},
      {"measurement": "Activity", "setting": "Homo sapiens [17]", "value": -2.8, "unit": "%"},
      {"measurement": "Activity", "setting": "Homo sapiens [18]", "value": 5.8, "unit": "%"},
      {"measurement": "Activity", "setting": "Homo sapiens [19]", "value": -2, "unit": "%"}
    ]},
    {"compound": "O=C([O-])Cc1ccccc1Nc1c(Cl)cccc1Cl.[Na+]", "note": "[DICLOFENAC SODIUM]", "values": [
      {"measurement": "Activity", "setting": "Homo sapiens [20]", "value": 3.89},
      {"measurement": "Activity", "setting": "Homo sapiens [21]", "value": 39.17}
    ]}
  ]
}
